Results from patent US11124605B2, “Antimicrobial alpha-helical cationic polypeptides” (priority 2015, dated 2021).

Experiments:
[1] = test system: C101 (Pseudomonas aeruginosa); test: Minimal inhibitory concentration (MIC); assay type: cell-based; settings: without polypeptide
Procedure: (§1) Gram-negative bacteria, DH5a (E. coli), MG1655 (E. coli), C101 (Pseudomonas aeruginosa), and Gram-positive bacteria, ATCC12608 (S. aureus), ATCC11778 (Bacillus toyonensis), and methicillin-resistant S. aureus (MRSA) strains, NRS382, NRS383, NRS384 were grown in LB medium at 37° C. Clinical isolated Helicobacter pylori strains, B107, J291, J99, J99-AF, J99-A9 and J99-A11 were incubated in BB with 10% FBS supplemented with vancomycin (5 μg/mL) at 37° C. Among them, J99-AF, J99-A9 and J99-A11 are drug resistant bacteria. For determination of the MIC, polypeptides were dissolved in media using serial dilutions from a stock solution. Into each well of a 96-well plate was added 200 μL of each concentration and 2 μL of bacteria (1×10^8 CFU (colony forming units)) in medium. The plate was incubated at 37° C. The optical density readings of microorganism solutions were measured after 24 h incubation. The MIC was considered as the lowest concentration of peptide where no visual growth of bacteria was detected.

MG1655 (E. coli) = test: Minimal inhibitory concentration (MIC); assay type: cell-based, Escherichia coli; settings: without polypeptide
Procedure: as §1

[2] = test system: trypsin, pronase, elastase from Pseudomonas aeruginosa, elastase from human leukocytes; test: Stability of polypeptides against protease (HPLC); assay type: in vitro ADME; settings: 8 h incubation with trypsin, P. aeruginosa elastase or human leukocyte elastase
Procedure: As a positive control, LL-37 (0.1 mg/mL) was also incubated with trypsin (0.1 mg/mL) or pronase (12 mg/L) or Pseudomonas Aeruginosa elastase (0.6 mg/L) in Tris buffer (pH 7.4) at 37° C. LL-37 (0.1 mg/mL) was incubated with elastase from human leukocytes (2.5 mg/L) in sodium acetate buffer at 37° C. After 8 h of incubation, the samples were taken out for HPLC analyses.

[3] = test system: ATCC11778 (Bacillus toyonensis); test: Minimal inhibitory concentration (MIC); assay type: cell-based; settings: without polypeptide
Procedure: as §1

[4] = test system: ATCC12608 (Staphylococcus aureus); test: Minimal inhibitory concentration (MIC); assay type: cell-based; settings: without polypeptide
Procedure: as §1
The stability of polypeptide was tested in the MIC assay in different environments, including salts, serum, plasma, tear fluid, and mucin. […]

DH5α (Escherichia coli) = test: Minimal inhibitory concentration (MIC); assay type: cell-based; settings: without polypeptide
Procedure: Gram-negative bacteria, DH5a (E. coli), MG1655 (E. coli), C101 (Pseudomonas aeruginosa), and Gram-positive bacteria, ATCC12608 (S. aureus), ATCC11778 (Bacillus toyonensis), and methicillin-resistant S. aureus (MRSA) strains, NRS382, NRS383, NRS384 were grown in LB medium at 37° C. […] For determination of the MIC, polypeptides were dissolved in media using serial dilutions from a stock solution. Into each well of a 96-well plate was added 200 μL of each concentration and 2 μL of bacteria (1×10^8 CFU (colony forming units)) in medium. The plate was incubated at 37° C. The optical density readings of microorganism solutions were measured after 24 h incubation. The MIC was considered as the lowest concentration of peptide where no visual growth of bacteria was detected.

| Molecule | MIC of antibiotic [1] [µM] | MIC of antibiotic (MG1655 (E. coli)) [µM] | also measured |
| --- | --- | --- | --- |
| gentamicin | 8.4 | 2.1 | – |
| LL-37 | – | – | proteolytic degradation by HPLC [2]: readily degraded |
| CO[C@H]1/C=C/O[C@@]2(C)Oc3c(C)c(O)c4c(O)c(c(/C=N/N5CCN(C)CC5)c(O)c4c3C2=O)NC(=O)/C(C)=C\C=C\[C@H](C)[C@H](O)[C@@H](C)[C@@H](O)[C@@H](C)[C@H](OC(C)=O)[C@@H]1C [Rifampicin, rifampicin] | 77.8 | 9.7 | – |
| C[C@H]1c2cccc(O)c2C(=O)C2=C(O)[C@]3(O)C(=O)C(C(N)=O)=C(O)[C@@H](N(C)C)[C@@H]3[C@@H](O)[C@@H]21 [Doxycycline, doxycycline] | 288.0 | 4.5 | – |
| [H]/N=C(/N)N[C@H]1[C@H](O)[C@@H](O)[C@H](O[C@@H]2O[C@@H](C)[C@](O)(C=O)[C@H]2O[C@@H]2O[C@@H](CO)[C@H](O)[C@@H](O)[C@@H]2NC)[C@@H](N/C(N)=N\[H])[C@@H]1O [Streptomycin, streptomycin] | – | – | MIC of antibiotic [3]: 6.9 µM; MIC of antibiotic [4]: 6.9 µM; MIC of antibiotic (DH5α (Escherichia coli)): 6.9 µM |
